# Test results reported in a melting point compilation (Tetko et al.; mined from patent text by program, amines drawn as free bases though some values may be those of a salt).
row,SMILES,melting point
1,CC1(C)C(=O)Oc2cc([N+](=O)[O-])c3ccc(Cn4cncn4)cc3c21,150 to 152 °C
2,COCCOC1c2ccn3c(Br)c(C)nc3c2N(C(C)=O)C(c2ccccc2)C1OC(=O)C(C)(C)C (centres undefined),166 to 167 °C
3,CN1C(=O)C(C)(C)N=C(c2ccccc2F)c2cc(NC(=O)C(C)(C)N)ccc21,250 °C
4,NC(=O)CCCCn1ccc(NC(N)=NCC(F)(F)F)n1,130 °C
5,CC1=C(C(=O)OC2CC(C)(C)N(C)C(C)(C)C2)CC(C(=O)OC2CC(C)(C)N(C)C(C)(C)C2)=C(C)N1,232 °C
6,O=S(=O)(ON=C1c2ccccc2-c2ccccc21)c1ccc(O)cc1,216 to 217 °C
7,Cc1nc(O)c(C)c(NCCc2ccncc2)n1,250 to 252 °C
8,CC(=O)OC1Oc2ccc(OS(C)(=O)=O)cc2C1(C)C (centres undefined),84 to 85 °C
9,NC(=O)C1CCN(c2ccncc2Cl)CC1,210 to 212 °C
10,CCOC(=O)COc1ccc(-c2nc3ncccc3[nH]2)c(OC)c1,198 °C
11,Cc1c(-c2ccccc2)oc2c(SCCCCl)cccc2c1=O,84 to 86 °C
12,Cc1nccn1-c1nccc2[nH]c(=O)ccc12,> 310 °C
13,CNCCCOc1cc(F)c(-c2c(Cl)nc(-c3cnccn3)nc2N[C@@H](C)C(F)(F)F)c(F)c1,48 to 50 °C
14,CCOC(=O)c1cnc(Nc2cccc(OC)c2)[nH]c1=O,233 to 234 °C
15,CC(C)(C)c1ccc(NC(=O)Nc2cccc(C(=O)O)c2)cc1,147 to 148 °C
16,CCOC(=O)/C=C/c1cc(-c2ccccc2)n(-c2ccc(S(C)(=O)=O)cc2)n1,164 to 168 °C
17,Cc1cc(C)c(C=NNC(=O)c2ccc(O)cc2)[nH]1,261 °C
18,CS(=O)(=O)c1ccc(-c2[nH]c3ccc(Cl)cc3c2-c2ccc(S(C)(=O)=O)cc2)cc1,173 to 175 °C
19,CC(C)(C)c1cc(-n2nc3ccc(Cl)cc3n2)c(O)c(C(C)(C)C)c1,151 to 154 °C
20,O=Cc1c(Cl)ccc(F)c1Cl,63 to 65 °C
21,N#Cc1cn(-c2c(Cl)cc(C(F)(F)F)cc2Cl)nc1F,120 to 121 °C
22,O=C(O)c1cccc2ccc(CBr)cc12,210 to 211 °C
23,CC(=O)N(O)C(C)c1cn(C)c2ccccc12 (centres undefined),106 to 108 °C
24,CCOC(=O)C1=C2COC=CN2C(C)=C(C(=O)OC)C1c1ccccc1Cl (centres undefined),126 to 127 °C
25,CCOC(=O)c1cc2c(C(F)(F)F)ccc3c2n1CCN3C,91 to 92 °C

row,SMILES,melting point
1,CCOC(=O)c1c[nH]c2c(F)c(C(C)=O)c(F)cc2c1=O,267 to 270 °C
2,COc1cccc(OC)c1C(=O)Nc1nnc(C2SCCCS2)s1,200 to 208 °C
3,CCOc1ccc2c(Nc3ccc(Cl)cc3F)c(C#N)cnc2c1,221 to 224 °C
4,CCCOc1ccc(-c2c(C(=O)OC)c(C(=O)OC)c(O)c3cc(OC)c(OC)c(OC)c23)cc1OCCC,132 °C
5,CCOC(=O)Cn1nc(O)c2ccccc21,181 to 182 °C
6,CCOC(=O)C(C)Oc1ncn(-c2ccccc2)n1 (centres undefined),88 to 89 °C
7,O=C(O)CC1C2=C(CCCC2)C(=O)N1c1ccc(Cl)cc1 (centres undefined),177 to 178 °C
8,CCCCCCCCCCc1ccc2cc(OS(=O)(=O)C(F)(F)F)c(SC)cc2c1,42 to 42.9 °C
9,O=S(=O)(Nc1nccs1)c1ccc(Nc2nc(OCC3CCCCC3)c3nc[nH]c3n2)cc1,152 to 154 °C
10,CCc1ccc(Oc2cnc(S)[nH]c2=O)cc1,> 220 °C
11,COC(=O)C(=O)c1c(F)c(F)c(OCCOc2ccc3ccccc3c2)c(F)c1F,69 to 71 °C
12,Cc1nc2c3c(c(C(=O)N4CCC4)cc2n1C)CCC1(Cc2ccccc2C1)N3,222 to 223 °C
13,COCc1c(-c2cc(C)no2)ncc2[nH]c3ccc(OCc4ccccc4)cc3c12,202 to 203 °C
14,COC(=O)[C@@H]1C(=O)Nc2ccccc2C[C@H]1c1ccc2c(c1)OCO2 (racemic),211 to 214 °C
15,CC(C)COc1c(-c2ccc(S(N)(=O)=O)cc2)cnn(-c2ccc(F)c(F)c2)c1=O,169 to 171 °C
16,COc1cc(/C=C/C=C/C(=O)NCCCN2CCC(c3c[nH]c4ccccc34)CC2)cc(OC)c1O,176 to 179 °C
17,CC(=O)OCC1OC(Oc2ccc(N)cc2)C(OC(C)=O)C(OC(C)=O)C1OC(C)=O (centres undefined),130 to 133 °C
18,O=[N+]([O-])c1ccc2ncnc(Nc3ccc4ncccc4c3)c2c1,> 300 °C
19,CCCN=CNc1cccc(O)n1,178 to 179 °C
20,N#Cc1cccc(-c2ccc3c(c2)C2(CCCCC2)C(=NO)N3)c1,198 to 200 °C
21,Cc1cc2c(cc1Cl)C=C(C(=O)O)C(C(F)(F)F)S2 (centres undefined),240 to 242 °C
22,C=C(c1ccc(Cl)cc1)c1ccc(NC(=O)c2cc(Br)cc(Br)c2O)cc1,181 to 183 °C
23,CC(=O)c1c(CCc2ccc(F)cc2)[nH]c2ccc(Cl)cc12,170 to 172 °C
24,N=C(Nc1ccc(CN(Cc2ccccc2)Cc2ccccc2)cc1)c1cccs1,127 to 128 °C
25,CCCc1nc(SC(F)F)c(C(=O)O)n1Cc1ccc(-c2ccccc2S(=O)(=O)NC(=O)NCc2ccccc2)cc1,150 °C

row,SMILES,melting point
1,CCOC(=O)[C@H](CCC1CCCCC1)N[C@@H]1COc2ccccc2N(Cc2ccc(C(C)C)cc2)C1=O,80 °C
2,CC(C)(C)OC(=O)COc1cc(NC(=O)OC(C)(C)C)c(N)cc1-c1ccc(F)cc1,30 to 33 °C
3,CC(=O)OCCn1nc(C)c(-c2ccc3c(c2)NC(=O)CO3)c1-c1ccc(F)cc1,160 °C
4,O=C1OC2(CCN(C(=O)Nc3cnc(-c4ccccc4)cn3)CC2)c2cc(F)ccc21,222 to 224 °C
5,COc1ccc(Br)c(C=C(C#N)C(=O)O)c1OC,130 to 132 °C
6,CC(C)CNC(=O)NCCCl,79.5 °C
7,O=C(COc1cc(N2C(=O)C3=C(CCCC3)C2=O)c(F)cc1Cl)OCc1nc[nH]n1,151 to 154 °C
8,O=C1Cc2ccccc2N1Nc1ccncc1,221 to 224 °C
9,COc1ccccc1CN[C@H]1CCCN(Cc2ccccc2)[C@H]1c1ccccc1 (relative stereo),68 to 70 °C
10,COC(=O)n1cc(C=O)c(-c2ccc([N+](=O)[O-])o2)n1,187 to 189 °C
11,FC(F)c1nc2ccccc2n1-c1nc(Nc2ncccn2)nc(N2CCOCC2)n1,261 to 263 °C
12,Cc1ccc2c(=O)c(S(=O)(=O)Cl)cn(C)c2c1,> 300 °C
13,NC(=O)Cn1c(-c2ccc(Cl)cc2)nc2ncccc21,280 to 283 °C
14,COc1cccc(-c2nn(Cc3ccccc3)c3ncnc(O)c23)c1,183 to 185 °C
15,O=C(O)Cc1ccc2c(c1)sc1c(Cl)cccc12,226 to 228 °C
16,CC1CC(Nc2nnc(-c3cccc(Oc4ccc(C(C)(C)C)cc4)c3)s2)CC(C)(C)C1 (centres undefined),166 to 167 °C
17,CC1(C)Oc2ccc([N+](=O)[O-])cc2C(n2ccccc2=O)=C1CNC(=O)C(F)(F)F,189 °C
18,Oc1ccc2c(c1)CCCC(c1ccccc1)=C2c1ccc(OCCCCCSCCCC(F)(F)C(F)(F)F)cc1,167 to 168 °C
19,CCCCC(Cc1ccc(OCCNC(=O)c2ccc(-c3ccc(C(=O)OC)cc3)cc2)cc1)C(=O)OCC (centres undefined),93 to 95 °C
20,Cn1c(=O)c2c(nc3n2CC(O)CN3Cc2ccccc2)n(C)c1=O (centres undefined),225 to 227 °C
21,O=C1CNC(=O)N1Cc1ccccc1,139 to 140 °C
22,O=C1NCc2c1cc1ccc3c(c1c2-c1ccc(C(F)(F)F)cc1)OCO3,315 to 317 °C
23,CNC1CCN(c2ncc3ncnc(Nc4ccc(F)c(Cl)c4)c3n2)CC1,174 to 176 °C
24,Cc1cc(CSCCNC(=C[N+](=O)[O-])NCC(O)c2cccc(Br)c2)sc1CN(C)C (centres undefined),104 to 106 °C
25,COc1ccc2c(c1)C(=O)C1=NCCCN12,152 °C

row,SMILES,melting point
1,CO[C@]1(c2csc(Sc3ccc(/C(C)=N/O)cc3)c2)CCO[C@@H]1C (racemic),89 to 90 °C
2,Cc1ccnc(C(=O)n2cc(CC(=O)O)c3cc(C)ccc32)c1,220 to 226 °C
3,Cc1nc(C)c(Cl)c(NCc2nccc(SCCCSc3ncccn3)c2C)n1,158 to 159 °C
4,O=C(NCC12CC3CC(CC(C3)C1)C2)c1cc(-c2cc(F)cnc2N2CCC(C(=O)O)CC2)ccc1Cl,130 to 135 °C
5,CCCC1C(C(=O)OCC)C(O)(C(F)(F)F)NC(O)(C(F)(F)F)C1C(=O)OCC (centres undefined),140 to 142 °C
6,Cc1oc(-c2ccco2)nc1COc1ccc(COc2nn(Cc3ccccc3)cc2C(=O)O)cc1Cl,191 to 192 °C
7,O=C(CCCN1CCC(NC(=O)c2ccccc2)CC1)c1ccc(F)cc1,161 to 162 °C
8,O=C1NC(=S)SC1Cc1cccc2c1CCC(=O)N2Cc1ccc(Br)cc1 (centres undefined),191 to 192 °C
9,CCCCc1nc(SC)c[nH]1,64 °C
10,COC(=O)c1ccc(C(=O)N2CCN(c3ncccc3N)CC2)cc1,144 °C
11,C#CCN1CCC(C(C)(C)C)CC1,48 to 49 °C
12,CSCc1nnc2n1-c1sc(Cl)cc1C(c1ccccc1Cl)=NC2,200 to 202 °C
13,O=S(=O)(c1ccc(F)cc1)N1CCCC1c1ccc(F)cc1 (racemic),121 °C
14,O=C(c1ccc(-c2cnc3c(c2)N(Cc2ccccc2)CCN3)cc1)N1CCC(N2CCCC2)CC1,120 °C
15,CCCCN(Cc1ccc(-c2ccccc2-c2nnn[nH]2)cc1)c1ncccc1CNC(C)=O,108 to 110 °C
16,Cc1ccc(/C=C/c2nc(COc3ccc(CCCCn4ccnn4)cc3)co2)cc1,154 to 155 °C
17,O=C1Nc2ccc(Cl)cc2Cc2sccc21,264 to 266 °C
18,Nc1nc(N)c2[nH]c(C3OC(CO)C(O)C3O)nc2n1 (centres undefined),234 to 237 °C
19,CCCOC(=O)Nc1cnc(OCCC)c(-c2nc3c(CCC)nn(C)c3c(=O)[nH]2)c1,210 to 211 °C
20,CCN(CC)C(=O)Nc1ccc(S(=O)(=O)N2C(=O)C(C)(c3cc(C(=O)NCc4cccnc4)ccc3Cl)c3cc(Cl)ccc32)c(OC)c1 (centres undefined),148 °C
21,NC1=NN(c2nc3ccccc3s2)C(c2ccccc2)C1 (centres undefined),270 to 272 °C
22,CNC(=O)N(C)c1nnc(C(C)(CCl)CCl)s1,150 to 152 °C
23,Cc1cccc2c1C(=O)C(=S)N2,265 °C
24,CCCc1cn(C(C)(C)C(=O)N(C)C)nc1-c1ccccc1Cl,64 to 66 °C
